Measured values published in paper PMC4567993, “A Novel Trypsin Inhibitor-Like Cysteine-Rich Peptide from the Frog Lepidobatrachus laevis Containing Proteinase-Inhibiting Activity” (Natural Products and Bioprospecting, 2015).
No end group written: not given here.

Legend:
[1] = system: trypsin; test: Trypsin inhibition, chromogenic substrate (serine protease inhibitory testing); assay type: biochemical; details: for Reciprocal reaction velocity of trypsin, 1/V av / Reaction velocity of trypsin, V av: pH 7.8, 37 °C, means of three duplicate experiments
Experimental: (§1) Effects of the tested samples on the hydrolysis of synthetic chromogenic substrates by different serine proteases were assayed in 0.05 M Tris–HCl, pH 7.8 (for trypsin, Sigma T4665; thrombin, Sigma T4393; chymotrypsin, Sigma C4129; elastase, Sigma E1250; plasmin, Sigma P1867) or pH 8.45 (for substilisin, Sigma P5380) buffer at 37 °C. The protease (trypsin, 10 nM; thrombin, 10 nM; chymotrypsin, 21 nM; elastase, 23 nM and substilisin, 30 nM) and different amounts of LL-TIL (final concentrations ranging from 0.0 to 20 μM) were pre-incubated for 10 min at 37 °C. […] The formation of p-nitroaniline was monitored continuously at 405 for 2 min. For chymotrypsin, the reaction was monitored at 253 nm. The inhibition constant Ki was determined according to the reported method.

[2] = system: thrombin; test: Thrombin inhibition, chromogenic substrate; assay type: biochemical; details: thrombin 10 nM; 0.05 M Tris-HCl pH 7.8, 37 °C; LL-TIL 0.0 to 20 μM; pre-incubated 10 min; data not shown
Text: (§2) Presently, the biological role of proteinase inhibitory peptides in amphibian skins is explained mainly by two hypotheses. One is that several enzymes are involved in peptide precursor processing or peptide degradation in the skin and proteinase inhibitors negatively modulate the activity of these proteases to avoid premature degradation or release of skin peptides. The other hypothesis is that the peptides are surface anti-infective agent similar to AMPs because they inhibit extracellular proteases produced by invading bacteria. […] Further work is needed to address this issue.
as §1

[3] = system: chymotrypsin; test: Chymotrypsin inhibition, chromogenic substrate; assay type: biochemical; details: chymotrypsin 21 nM; 0.05 M Tris-HCl pH 7.8, 37 °C; monitored at 253 nm; LL-TIL 0.0 to 20 μM; pre-incubated 10 min; data not shown
Text: as §2, §1

[4] = system: elastase; test: Elastase inhibition, chromogenic substrate; assay type: biochemical; details: elastase 23 nM; 0.05 M Tris-HCl pH 7.8, 37 °C; LL-TIL 0.0 to 20 μM; pre-incubated 10 min; data not shown
Text: as §2, §1

[5] = system: plasmin; test: Plasmin inhibition, chromogenic substrate; assay type: biochemical; details: 0.05 M Tris-HCl pH 7.8, 37 °C; LL-TIL 0.0 to 20 μM; pre-incubated 10 min; data not shown
Text: as §2, §1

[6] = system: substilisin; test: Substilisin inhibition, chromogenic substrate; assay type: biochemical; details: substilisin 30 nM; pH 8.45, 37 °C; LL-TIL 0.0 to 20 μM; pre-incubated 10 min; data not shown
Text: as §2, §1

[7] = system: Bacillus subtilis (ATCC 6633); test: Antimicrobial assay (MIC); assay type: cell-based; details: recombinant LL-TIL, data not shown
Experimental: (§3) For antimicrobial assays, several microorganisms including Gram positive bacterium S. aureus (ATCC 25923), […] and fungus C. albicans (ATCC 20032) were obtained from Kunming Medical College. They were first grown in LB (Luria–Bertani) broth or yeast extract–peptone–dextrose broth as our previous methods. MIC (minimal inhibitory concentration) of tested sample against these microorganisms was determined as previous reports. The MIC is defined as the lowest concentration of tested sample to inhibit microorganism growth.

[8] = system: Candida albicans (ATCC 20032); test: Antimicrobial assay (MIC); assay type: cell-based; details: recombinant LL-TIL, ATCC 20032, fungus, data not shown
Experimental: as §3

[9] = system: Escherichia coli (ATCC 25922); test: Antimicrobial assay (MIC); assay type: cell-based; details: recombinant LL-TIL, ATCC 25922, Gram-negative, data not shown
Experimental: as §3

[10] = system: Staphylococcus aureus (ATCC 25923); test: Antimicrobial assay (MIC); assay type: cell-based; details: recombinant LL-TIL, ATCC 25923, Gram positive, data not shown
Experimental: as §3

[11] = system: microorganisms; test: Antimicrobial assay, overall statement; assay type: cell-based; details: recombinant LL-TIL; S. aureus, E. coli, B. subtilis, C. albicans tested
Experimental: as §3

[12] = system: elastase; set-up: method as in 3 sources, ref [14] = [14]; PMID 23533574; doi:10.1371/journal.pone.0057529; 14. Chen ZY Wang B Hu J Yang WS Cao ZJ Zhuo RX Li W Wu Y PLoS ONE 2013 8 e57529 10.1371/journal.pone.0057529 23533574 PMC3606364 ||| ref [15] = [15]; PMID 16191451; doi:10.1016/j.peptides.2005.07.013; 15. Fogaca AC Almeida IC Eberlin MN Tanaka AS Bulet P Daffre S Peptides 2006 27 667 674 10.1016/j.peptides.2005.07.013 16191451 ||| ref [20] = [20]; PMID 23200835; doi:10.1016/j.bbrc.2012.11.056; 20. Kim BY Lee KS Wan H Zou FM Choi YS Yoon HJ Kwon HW Je YH Jin BR Biochem. Biophys. Res. Commun. 2013 430 144 149 10.1016/j.bbrc.2012.11.056 23200835; details: ref [15]; cited from earlier work
[13] = system: chymotrypsin; set-up: method as in 2 sources, one per row (each row's own in cited_ref): ref [15] = [15]; PMID 16191451; doi:10.1016/j.peptides.2005.07.013; 15. Fogaca AC Almeida IC Eberlin MN Tanaka AS Bulet P Daffre S Peptides 2006 27 667 674 10.1016/j.peptides.2005.07.013 16191451 ||| ref [20] = [20]; PMID 23200835; doi:10.1016/j.bbrc.2012.11.056; 20. Kim BY Lee KS Wan H Zou FM Choi YS Yoon HJ Kwon HW Je YH Jin BR Biochem. Biophys. Res. Commun. 2013 430 144 149 10.1016/j.bbrc.2012.11.056 23200835; details: ref [15]; cited from earlier work
[14] = set-up: method as in PMID 16191451; details: ref [15]; cited from earlier work
[15] = biological target: trypsin (Sigma T4665); test: enzyme inhibition kinetics (chromogenic substrate, Dixon plot); trypsin 10 nM pre-incubated with LL-TIL for 10 min at 37 °C in 0.05 M Tris-HCl, pH 7.8; reaction started with substrate B-3133; p-nitroaniline followed at 405 for 2 min; Ki by Dixon plot from velocities at [S] = 0.2 and 0.4 mM

With “IRCPKDKIYKFCGSPCPPSCKDLTPNCIAVCKKGCFCRDGTVDNNHGKCVKKENC (disulfide (positions not given here)) [LL-TIL]” the “inhibition of trypsin (in words)” value ([1]; 0.05 M Tris-HCl pH 7.8, 37 °C, trypsin 10 nM, LL-TIL 0.0 to 20 μM) was “inhibited the activity of trypsin”, the “Reciprocal reaction velocity of trypsin, 1/V av” value (from here on “Reciprocal reaction velocity”) ([1]; [I] = 12.987 μM, [S] = 0.2 mM, 1/V av at [I] 0: 3.7864) was 5.2826 and the “Reaction velocity of trypsin, V av” value ([1]; [I] = 12.987 μM, [S] = 0.2 mM, V av at [I] 0: 0.2641) was 0.1893. The “Reciprocal reaction velocity” value ([1]; [I] = 12.987 μM, [S] = 0.4 mM, 1/V av at [I] 0: 2.7352) was 3.8700, the “Reaction velocity of trypsin, V av” value ([1]; [I] = 12.987 μM, [S] = 0.4 mM, V av at [I] 0: 0.3656) was 0.2584 and the “Reciprocal reaction velocity” value ([1]; [I] = 25.974 μM, [S] = 0.2 mM, 1/V av at [I] 0: 3.7864) was 7.3116. The “Reaction velocity of trypsin, V av” value ([1]; [I] = 25.974 μM, [S] = 0.2 mM, V av at [I] 0: 0.2641) was 0.1368, the “Reciprocal reaction velocity” value ([1]; [I] = 25.974 μM, [S] = 0.4 mM, 1/V av at [I] 0: 2.7352) was 4.8481 and the “Reaction velocity of trypsin, V av” value ([1]; [I] = 25.974 μM, [S] = 0.4 mM, V av at [I] 0: 0.3656) was 0.2063. The Ki ([1]; recombinant LL-TIL, trypsin 10 nM, 0.05 M Tris-HCl pH 7.8, 37 °C, pre-incubated 10 min, chromogenic substrate B-3133, p-nitroaniline at 405 for 2 min, Dixon plot, [S] 0.2 and 0.4 mM) was 16.5 µM, the “inhibition of hydrolysis of chromogenic substrate by thrombin” value [2] was “did not inhibit” and the “inhibition of hydrolysis of chromogenic substrate by chymotrypsin” value [3] was “did not inhibit”. For the same substance, the “inhibition of hydrolysis of chromogenic substrate by elastase” value [4] was “did not inhibit”, the “inhibition of hydrolysis of chromogenic substrate by plasmin” value [5] was “did not inhibit” and the “inhibition of hydrolysis of chromogenic substrate by substilisin” value [6] was “did not inhibit”. The “antimicrobial ability against B. subtilis” value [7] was “no antimicrobial abilities”, the “antimicrobial ability against C. albicans” value [8] was “no antimicrobial abilities” and the “antimicrobial ability against E. coli” value [9] was “no antimicrobial abilities”. For the same substance, the “antimicrobial ability against S. aureus” value [10] was “no antimicrobial abilities” and the “antimicrobial activity (overall)” value [11] was “no antimicrobial activity”.
In the case of “Ixodidin: from hemocytes of the cattle tick”, the inhibition of elastase [12] is listed as “able to inhibit”, the inhibition of chymotrypsin [13] is listed as “able to inhibit” and the antimicrobial activity [14] is listed as “weak antimicrobial activities”.
In the case of “LL-TIL (trypsin inhibitor-like cysteine-rich peptide from Lepidobatrachus laevis), recombinant mature peptide”, the Ki [15] is reported as 16.5 µM.
